Results reported in US20250263370A1 (Tay Therapeutics Limited, priority 2022, published 2025).
Values joined by “and” are separate entries in the source; they are usually repeats but may differ in a detail not shown here. Equal entries are not always repeated.

Test system: collagen-induced arthritis
Assay: Collagen-induced arthritis (CIA) model in rats: body weight, paw volume, clinical scores, clinical observations; for Average detailed clinical score, left hind limb: key of the grades not given here; for Average detailed clinical score, right hind limb: key of the grades not given here; for Detailed Clinical Scores: left forelimb: key of the grades not given here; for Detailed Clinical Scores: left hind limb: key of the grades not given here; for Detailed Clinical Scores: right forelimb: key of the grades not given here; for Detailed Clinical Scores: right hind limb: key of the grades not given here; for Detailed Clinical Scores: score: key of the grades not given here; for Mean overall clinical score ± SD: key of the grades not given here; for overall clinical score: key of the grades not given here
Settings: for Average detailed clinical score, left hind limb / Average detailed clinical score, right forelimb / Average detailed clinical score, right hind limb / Average detailed clinical score, score / Mean overall clinical score ± SD / Overall clinical score / Average detailed clinical score, left forelimb / Detailed Clinical Scores: left forelimb / Detailed Clinical Scores: left hind limb / Detailed Clinical Scores: right forelimb / Detailed Clinical Scores: right hind limb / Detailed Clinical Scores: score: CIA rats; for Overall clinical score: individual animals #1-8; for Mean animal paw volume ± SD: group mean; for Animal paw volume percent change: individual animals; for Detailed Clinical Scores: left forelimb / Detailed Clinical Scores: left hind limb / Detailed Clinical Scores: right forelimb / Detailed Clinical Scores: right hind limb / Detailed Clinical Scores: score: individual animals ID 1-8

Compound: CNC(=O)c1[nH]c(C(=O)NC2CCC2)cc1O[C@@H](C)c1ccccc1 (stereo in doubt) [Example 101, N^5-cyclobutyl-N^2-methyl-3-(1-phenylethoxy)-1H-pyrrole-2,5-dicarboxamide]
- Average detailed clinical score, left hind limb (Day 15, 3 mg/kg): 2.00
- Average detailed clinical score, right forelimb (Day 15, 3 mg/kg): 0.25
- Average detailed clinical score, right hind limb (Day 15, 3 mg/kg): 2.13
- Average detailed clinical score, score (Day 15, 3 mg/kg): 4.38
- Mean overall clinical score ± SD (Day 15, 3 mg/kg): 4 ± 2
- Overall clinical score (Day 15, 3 mg/kg): 2 and 3 (3×) and 6 (2×) and 8 and 4
- Average detailed clinical score, left forelimb (Day 15, 10 mg/kg): 0.00
- Average detailed clinical score, left hind limb (Day 15, 10 mg/kg): 1.75
- Average detailed clinical score, right forelimb (Day 15, 10 mg/kg): 0.00
- Average detailed clinical score, right hind limb (Day 15, 10 mg/kg): 1.50
- Average detailed clinical score, score (Day 15, 10 mg/kg): 3.25
- Mean overall clinical score ± SD (Day 15, 10 mg/kg): 3 ± 3
- Overall clinical score (Day 15, 10 mg/kg): 5 and 4 and 7
- Average detailed clinical score, left forelimb (Day 15, 30 mg/kg): 0.00
- Average detailed clinical score, left hind limb (Day 15, 30 mg/kg): 0.38
- Average detailed clinical score, right forelimb (Day 15, 30 mg/kg): 0.00
- Average detailed clinical score, right hind limb (Day 15, 30 mg/kg): 0.50
- Average detailed clinical score, score (Day 15, 30 mg/kg): 0.88
- Mean overall clinical score ± SD (Day 15, 30 mg/kg): 1 ± 1
- Mean animal paw volume ± SD (Day 18, L paw, 3 mg/kg): 2.49 mL
- Animal paw volume percent change (Day 18, L paw, 3 mg/kg): 83.52% and 101.14% and 98.86% and 81.04% and 106.51% and 80.59% and 82.40%
- Mean animal paw volume ± SD (Day 18, L paw, 10 mg/kg): 2.08 mL
- Animal paw volume percent change (Day 18, L paw, 10 mg/kg): 72.92% and 61.90% and 97.28% and 109.73% and 15.71% and 76.54%
- Mean animal paw volume ± SD (Day 18, L paw, 30 mg/kg): 1.70 mL
- Mean animal paw volume ± SD (Day 18, R paw, 3 mg/kg): 2.53 mL
- Animal paw volume percent change (Day 18, R paw, 3 mg/kg): 67.68% and 91.39% and 100.38% and 76.49% and 106.51% and 89.22% and 86.89%
- Mean animal paw volume ± SD (Day 18, R paw, 10 mg/kg): 2.02 mL
- Animal paw volume percent change (Day 18, R paw, 10 mg/kg): 58.36% and 65.34% and 94.21% and 111.20% and 22.39% and 46.36%
- Mean animal paw volume ± SD (Day 18, R paw, 30 mg/kg): 1.63 mL
- Detailed Clinical Scores: left forelimb (Day 18, 3 mg/kg): 0
- Detailed Clinical Scores: left hind limb (Day 18, 3 mg/kg): 3 and 4
- Detailed Clinical Scores: right forelimb (Day 18, 3 mg/kg): 0
- Detailed Clinical Scores: right hind limb (Day 18, 3 mg/kg): 4 and 3
- Detailed Clinical Scores: score (Day 18, 3 mg/kg): 7
- Average detailed clinical score, left forelimb (Day 18, 3 mg/kg): 0.50
- Average detailed clinical score, left hind limb (Day 18, 3 mg/kg): 3.88
- Average detailed clinical score, right forelimb (Day 18, 3 mg/kg): 0.50
- Average detailed clinical score, right hind limb (Day 18, 3 mg/kg): 3.88
- Average detailed clinical score, score (Day 18, 3 mg/kg): 8.75
- Mean overall clinical score ± SD (Day 18, 3 mg/kg): 9 ± 2
- Overall clinical score (Day 18, 3 mg/kg): 7 (2×) and 8 (4×) and 12 (2×)
- Average detailed clinical score, left forelimb (Day 18, 10 mg/kg): 0.00
- Average detailed clinical score, left hind limb (Day 18, 10 mg/kg): 2.50
- Average detailed clinical score, right forelimb (Day 18, 10 mg/kg): 0.88
- Average detailed clinical score, right hind limb (Day 18, 10 mg/kg): 2.25
- Average detailed clinical score, score (Day 18, 10 mg/kg): 5.63
- Mean overall clinical score ± SD (Day 18, 10 mg/kg): 6 ± 4
- Overall clinical score (Day 18, 10 mg/kg): 7 and 6 and 12
- Average detailed clinical score, left forelimb (Day 18, 30 mg/kg): 0.00
- Average detailed clinical score, left hind limb (Day 18, 30 mg/kg): 1.13
- Average detailed clinical score, right forelimb (Day 18, 30 mg/kg): 0.00
- Average detailed clinical score, right hind limb (Day 18, 30 mg/kg): 0.88
- Average detailed clinical score, score (Day 18, 30 mg/kg): 2.00
- Mean overall clinical score ± SD (Day 18, 30 mg/kg): 2 ± 2
- Mean animal paw volume ± SD (Day 19, L paw, 3 mg/kg): 2.64 mL
- Animal paw volume percent change (Day 19, L paw, 3 mg/kg): 91.95% and 116.35% and 108.75% and 85.50% and 107.28% and 90.11% and 81.65%
- Mean animal paw volume ± SD (Day 19, L paw, 10 mg/kg): 2.07 mL
- Animal paw volume percent change (Day 19, L paw, 10 mg/kg): 71.48% and 61.51% and 93.39% and 105.45% and 13.03%
- Mean animal paw volume ± SD (Day 19, L paw, 30 mg/kg): 1.76 mL
- Mean animal paw volume ± SD (Day 19, R paw, 3 mg/kg): 2.60 mL
- Animal paw volume percent change (Day 19, R paw, 3 mg/kg): 67.68% and 117.60% and 98.86% and 76.49% and 104.98% and 107.81% and 86.14%
- Mean animal paw volume ± SD (Day 19, R paw, 10 mg/kg): 2.02 mL
- Animal paw volume percent change (Day 19, R paw, 10 mg/kg): 67.62% and 63.35% and 90.35% and 108.88% and 21.62%
- Mean animal paw volume ± SD (Day 19, R paw, 30 mg/kg): 1.74 mL
- Detailed Clinical Scores: left forelimb (Day 19, 3 mg/kg): 1 and 0
- Detailed Clinical Scores: left hind limb (Day 19, 3 mg/kg): 4
- Detailed Clinical Scores: right forelimb (Day 19, 3 mg/kg): 0
- Detailed Clinical Scores: right hind limb (Day 19, 3 mg/kg): 4 and 3
- Detailed Clinical Scores: score (Day 19, 3 mg/kg): 9 and 7
- Average detailed clinical score, left forelimb (Day 19, 3 mg/kg): 1.13
- Average detailed clinical score, left hind limb (Day 19, 3 mg/kg): 4.00
- Average detailed clinical score, right forelimb (Day 19, 3 mg/kg): 1.00
- Average detailed clinical score, right hind limb (Day 19, 3 mg/kg): 3.75
- Average detailed clinical score, score (Day 19, 3 mg/kg): 9.88
- Mean overall clinical score ± SD (Day 19, 3 mg/kg): 10 ± 3
- Overall clinical score (Day 19, 3 mg/kg): 9 and 7 (2×) and 8 (2×) and 16 and 12 (2×)
- Average detailed clinical score, left forelimb (Day 19, 10 mg/kg): 0.00
- Average detailed clinical score, left hind limb (Day 19, 10 mg/kg): 2.38
- Average detailed clinical score, right forelimb (Day 19, 10 mg/kg): 1.13
- Average detailed clinical score, right hind limb (Day 19, 10 mg/kg): 2.88
- Average detailed clinical score, score (Day 19, 10 mg/kg): 6.38
- Mean overall clinical score ± SD (Day 19, 10 mg/kg): 6 ± 4
- Overall clinical score (Day 19, 10 mg/kg): 7 and 6 and 12
- Average detailed clinical score, left forelimb (Day 19, 30 mg/kg): 0.00
- Average detailed clinical score, left hind limb (Day 19, 30 mg/kg): 1.63
- Average detailed clinical score, right forelimb (Day 19, 30 mg/kg): 0.25
- Average detailed clinical score, right hind limb (Day 19, 30 mg/kg): 1.75
- Average detailed clinical score, score (Day 19, 30 mg/kg): 3.63
- Mean overall clinical score ± SD (Day 19, 30 mg/kg): 4 ± 3
- Mean animal paw volume ± SD (Day 21, L paw, 3 mg/kg): 2.67 mL
- Animal paw volume percent change (Day 21, L paw, 3 mg/kg): 90.42% and 128.52% and 109.51% and 86.25% and 104.98% and 93.04% and 80.15%
- Mean animal paw volume ± SD (Day 21, L paw, 10 mg/kg): 2.09 mL
- Animal paw volume percent change (Day 21, L paw, 10 mg/kg): 71.48% and 60.71% and 92.61% and 105.06% and 13.03%
- Mean animal paw volume ± SD (Day 21, L paw, 30 mg/kg): 1.82 mL
- Mean animal paw volume ± SD (Day 21, R paw, 3 mg/kg): 2.59 mL
- Animal paw volume percent change (Day 21, R paw, 3 mg/kg): 69.20% and 117.60% and 97.35% and 74.25% and 106.13% and 105.58% and 84.64%
- Mean animal paw volume ± SD (Day 21, R paw, 10 mg/kg): 2.08 mL
- Animal paw volume percent change (Day 21, R paw, 10 mg/kg): 66.90% and 62.15% and 89.58% and 106.95% and 21.62%
- Mean animal paw volume ± SD (Day 21, R paw, 30 mg/kg): 1.79 mL
- Average detailed clinical score, left forelimb (Day 21, 3 mg/kg): 1.00
- Average detailed clinical score, left hind limb (Day 21, 3 mg/kg): 4.00
- Average detailed clinical score, right forelimb (Day 21, 3 mg/kg): 1.00
- Average detailed clinical score, right hind limb (Day 21, 3 mg/kg): 3.75
- Average detailed clinical score, score (Day 21, 3 mg/kg): 9.75
- Mean overall clinical score ± SD (Day 21, 3 mg/kg): 10 ± 3
- Overall clinical score (Day 21, 3 mg/kg): 9 and 7 (2×) and 8 (2×) and 14 and 13 and 12
- Average detailed clinical score, left forelimb (Day 21, 10 mg/kg): 0.00
- Average detailed clinical score, left hind limb (Day 21, 10 mg/kg): 2.50
- Average detailed clinical score, right forelimb (Day 21, 10 mg/kg): 1.25
- Average detailed clinical score, right hind limb (Day 21, 10 mg/kg): 2.75
- Average detailed clinical score, score (Day 21, 10 mg/kg): 6.50
- Mean overall clinical score ± SD (Day 21, 10 mg/kg): 7 ± 4
- Overall clinical score (Day 21, 10 mg/kg): 7 and 6 and 12 (2×)
- Average detailed clinical score, left forelimb (Day 21, 30 mg/kg): 0.00
- Average detailed clinical score, left hind limb (Day 21, 30 mg/kg): 1.88
- Average detailed clinical score, right forelimb (Day 21, 30 mg/kg): 0.13
- Average detailed clinical score, right hind limb (Day 21, 30 mg/kg): 1.63
- Average detailed clinical score, score (Day 21, 30 mg/kg): 3.63
- Mean overall clinical score ± SD (Day 21, 30 mg/kg): 4 ± 3
